Where a name gives a salt, the structure may show the parent alone.
Target: T1, rh beta Tryptase (Homo sapiens, UniProt Q15661)
T1 construct: purchased Promega
Test: Tryptase inhibition test (cleavage of chromogenic substrate, p-nitroaniline read at 405 nm)
Assay type: biochemical
Details: Tris HCl buffer 100 mM, calcium 5 mM, heparin, pH 7.4, 37°C; substrate N-p-Tosyl-Gly-Pro-Lys-para-nitroanilin 0.6 mM; 5 min preincubation, 5 min incubation; 0.91 U/ml enzyme
Experimental: Die erfindungsgemäßen Verbindungen zeichnen sich durch ihre Tryptase-inhibierende Wirksamkeit aus. Besagte Fähigkeit, die Tryptase zu inhibieren, wurde gemäß der nachfolgenden Testbeschreibung untersucht. Die Bestimmung wird in Tris HCI Puffer (100 mM), der zusätzlich Calcium (5 mM) und Heparin ([…]) enthält, bei pH 7.4 durchgeführt. Als Standard wird rh beta Tryptase eingesetzt, die beispielsweise von Promega käuflich zu erwerben ist. Als Substrat dient N-p-Tosyl-[…]-nitroanilin in einer Konzentration von 0.6 mM. Das Substrat wird durch Tryptase verdaut wobei p-Nitroanilin entsteht, das bei 405 nm gemessen werden kann. Üblicherweise wird eine Inkubationszeit von 5 Minuten und eine Inkubationstemperatur von 37°C gewählt. Als Enzymaktivität werden 0.91 U/ml eingesetzt. Die Bestimmung erfolgt in einem Autoanalyser (Cobas Bio) der Firma Hofmann LaRoche. Die potentiellen Hemmsubstanzen werden in Konzentrationen von 10 μM im Screening eingesetzt, wobei die Hemmung der Tryptase in Prozent angegeben wird. […] Nach 5-minütiger Vorinkubation der potentiellen Hemmsubstanzen, wird das Substrat zum […] Reaktion zugegeben, wobei die Bildung von p-Nitroanilin […]. […]

T1 sequence (Q15661 31-275): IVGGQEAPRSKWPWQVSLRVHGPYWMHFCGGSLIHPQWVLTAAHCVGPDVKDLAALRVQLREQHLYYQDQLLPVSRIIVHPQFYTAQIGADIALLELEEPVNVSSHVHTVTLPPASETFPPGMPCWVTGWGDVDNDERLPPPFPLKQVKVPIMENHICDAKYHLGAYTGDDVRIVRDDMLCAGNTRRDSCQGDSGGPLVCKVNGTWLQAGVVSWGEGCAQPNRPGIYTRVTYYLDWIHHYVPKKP

CCN(CC)CCN(c1ccc2c(c1)nc(CCc1ccc(C(=N)N)cc1)n2C)S(=O)(=O)c1cccc2c(N(C)C)cccc12 [Beispiel 2, N-{2-[2-(4-Amidinophenyl)ethyl]-1-methyl-benzimidazol-5-yl}-N-diethylaminoethyl-(dansylamid)-dihydrochlorid]
IC50: 0.011 µM
